Article PMC6767403, “8‐Hydroxyquinolines are bactericidal against Mycobacterium tuberculosis” (Drug Development Research, 2019)
≈ marks a conversion by molar mass, not a printed value. Read-outs that look alike come from different tables or passages of the source.

How the values were obtained:
[1] = tested on: M. tuberculosis H37Rv; assay: microbe, parasite or virus in culture; format: cell-based, Mycobacterium tuberculosis
[2] = Vero cell cytotoxicity, CellTiter-Glo, 2 days; format: cell-based; conditions: African green monkey, 2 days exposure
Description: Vero cells (CCL81) were cultured in high‐glucose Dulbecco's modified Eagle medium with GlutaMax (Invitrogen), 10% v/v fetal bovine serum, 50 units/mL penicillin, and 50 μg/mL streptomycin. Cells were exposed to compounds for 2 days and viability was determined using CellTiter‐Glo (Promega).

[3] = tested on: HepG2 human liver cells; assay: HepG2 cytotoxicity, CellTiter-Glo, 72 hr; conditions: HepG2, 72 h, read-out: HepG2 IC50
[4] = tested on: M. tuberculosis; assay: Kill kinetics against replicating M. tuberculosis (CFU); format: cell-based, Mycobacterium tuberculosis; conditions: replicating conditions; for bactericidal activity (in words): 7H9-OADC-Tw medium, 1× to 10× MIC
[5] = tested on: HepG2 human liver cells
[6] = Mycobacterium tuberculosis, H37RV, 120 h, […], mean ± SD (n in parentheses), read-out: MIC

Compound: Oc1cccc2cccnc12 [Compound 1, 8‐hydroxyquinoline]
- MIC [1]: 3.6 ± 0.20 (2) μM
- MIC ([1]; Mycobacterium tuberculosis, H37RV, 120 h): 3.6 µM (≈ 0.523 µg/mL)
- IC50 at 2 days ([2]; Vero cells): 1.4 µM
- IC50 [3]: 7.6 ± 0.68 µM

Compound: Cc1ccc(O)c2ncccc12 [Compound 2]
- MIC [1, 6]: 3.1 ± 1.1 µM (≈ 0.493 µg/mL)
- IC50 at 2 days ([2]; Vero cells (CCL81)): 1.4 µM
- IC50 [3]: 6.5 ± 1.7 µM

Compound: Oc1ccc(Br)c2cccnc12 [Compound 3]
- MIC [1, 6]: 2.9 ± 0.4 µM (≈ 0.65 µg/mL)
- IC50 at 2 days ([2]; Vero cells (CCL81)): 1.8 µM
- IC50 [3]: 6.9 ± 0.59 µM

Compound: Oc1ccc(Cl)c2cccnc12 [Compound 4]
- MIC [1, 6]: 3 ± 1 µM (≈ 0.539 µg/mL)
- IC50 at 2 days ([2]; Vero cells (CCL81)): 2.4 µM
- IC50 [3]: 7.6 ± 1.5 µM
- bactericidal activity (in words) [4]: bactericidal
- logs of bacteria killed ([4]; 12 μM (2.5× MIC) and higher, within 14 days): ≥ 3 logs

Compound: Oc1c(Cl)cc(Cl)c2cccnc12 [Compound 5]
- MIC [1, 6]: 8.4 µM (≈ 1.8 µg/mL)
- MIC ([1]; […], mean ± SD (n in parentheses)): 8.4 ± 4.5 (6) μM
- IC50 at 2 days ([2]; Vero cells (CCL81)): 1.3 µM
- IC50 [3]: 7.6 ± 1.2 µM

Compound: O=[N+]([O-])c1ccc(O)c2ncccc12 [Compound 6]
- MIC [1, 6]: 4.8 ± 3.3 µM (≈ 0.913 µg/mL)
- IC50 at 2 days ([2]; Vero cells (CCL81)): 2.9 µM
- IC50 [3]: 7.7 ± 1.8 µM

Compound: Oc1ccc(COC2CCCCC2)c2cccnc12 [Compound 7]
- MIC [1, 6]: 3.2 ± 0.85 µM (≈ 0.823 µg/mL)
- IC50 at 2 days ([2]; Vero cells (CCL81)): 6.2 µM
- IC50 [3]: 4.9 ± 1.9 µM

Compound: Oc1ccc(CNc2cccc(Br)c2)c2cccnc12 [Compound 8]
- anti-tubercular activity (in words) [1]: abrogated the anti‐tubercular activity
- MIC [1, 6]: > 20 µM
- IC50 at 2 days ([2]; Vero cells (CCL81)): 7.5 µM
- IC50 [3]: 12 ± 0.5 µM

Compound: Oc1ccc(CN2CCN(c3ccc(F)cc3)CC2)c2cccnc12 [Compound 9]
- anti-tubercular activity (in words) [1]: abrogated the anti‐tubercular activity
- MIC [1, 6]: > 20 µM
- IC50 at 2 days ([2]; Vero cells (CCL81)): 5.8 µM
- IC50 [3]: 9.8 ± 2.2 µM

Compound: [O-][n+]1cccc2cccc(O)c21 [Compound 10]
- anti-tubercular activity (in words) [1]: loss of activity
- MIC [1, 6]: > 20 µM
- IC50 at 2 days ([2]; Vero cells (CCL81)): > 20 µM
- IC50 [3]: < 88 µM
- cytotoxicity against HepG2 cells (in words) [5]: significant reduction of cytotoxicity

Compound: Cc1ccc2cccc(O)c2n1 [Compound 11]
- anti-tubercular activity (in words) [1]: not tolerated
- MIC [1, 6]: > 20 µM
- IC50 at 2 days ([2]; Vero cells): 12 µM
- IC50 [3]: 28 ± 9 µM

Compound: Nc1ccc2cccc(O)c2n1 [Compound 12]
- anti-tubercular activity (in words) [1]: retained measurable anti‐tubercular activity
- MIC [1, 6]: 4.6 ± 1.7 µM (≈ 0.737 µg/mL)
- IC50 at 2 days ([2]; Vero cells): 3.3 µM
- IC50 [3]: 12 ± 0.5 µM

Compound: CNc1ccc2cccc(O)c2n1 [Compound 13]
- anti-tubercular activity (in words) [1]: retained measurable anti‐tubercular activity
- MIC [1, 6]: 6.4 ± 0.35 µM (≈ 1.11 µg/mL)
- IC50 at 2 days ([2]; Vero cells (CCL81)): 8.2 µM
- IC50 [3]: 22 ± 2.8 µM

Compound: CN(C)c1ccc2cccc(O)c2n1 [Compound 14]
- anti-tubercular activity (in words) [1]: loss of activity
- MIC [1, 6]: > 20 µM
- IC50 at 2 days ([2]; Vero cells (CCL81)): > 50 µM
- IC50 [3]: > 100 µM

Compound: Oc1cccc2ccc(N3CCCCC3)nc12 [Compound 15]
- anti-tubercular activity (in words) [1]: loss of activity
- MIC [1, 6]: > 20 µM
- IC50 at 2 days ([2]; Vero cells (CCL81)): > 50 µM
- IC50 [3]: > 100 µM

Compound: Oc1cccc2ccc(Nc3ccccc3)nc12 [Compound 16]
- anti-tubercular activity (in words) [1]: loss of activity
- MIC [1, 6]: > 20 µM
- IC50 at 2 days ([2]; Vero cells (CCL81)): 0.94 µM
- IC50 [3]: 3.8 ± 0.45 µM

Compound: CC(=O)Nc1ccc2cccc(O)c2n1 [Compound 17]
- anti-tubercular activity (in words) [1]: not tolerated
- MIC [1, 6]: > 20 µM
- IC50 at 2 days ([2]; Vero cells (CCL81)): 4.9 µM
- IC50 [3]: 9 ± 1 µM

Compound: Cc1cc(C)n(-c2ccc3cccc(O)c3n2)n1 [Compound 19]
- MIC [1, 6]: > 20 µM
- IC50 at 2 days ([2]; Vero cells (CCL81)): 19 µM
- IC50 [3]: 12 ± 0.5 µM

Compound: COc1cccc(/C=C/c2ccc3cccc(O)c3n2)c1 [Compound 21]
- MIC [1, 6]: 8.7 ± 0.2 µM (≈ 2.41 µg/mL)
- IC50 at 2 days ([2]; Vero cells (CCL81)): 2.9 µM
- IC50 [3]: 10 ± 1 µM

Compound: COc1ccccc1/C=C/c1ccc2cccc(O)c2n1 [Compound 22]
- MIC [1, 6]: 13 ± 9.1 µM (≈ 3.61 µg/mL)
- IC50 at 2 days ([2]; Vero cells (CCL81)): 6.2 µM
- IC50 [3]: 12 ± 2 µM

Compound: Oc1cccc2ccc(/C=C/c3ccc4c(c3)OCO4)nc12 [Compound 23]
- MIC [1, 6]: 15 ± 5 µM (≈ 4.37 µg/mL)
- IC50 at 2 days ([2]; Vero cells (CCL81)): 6 µM
- IC50 [3]: 9.1 ± 3 µM

Compound: Oc1cccc2ccc(/C=C/c3cccc(F)c3)nc12 [Compound 24]
- MIC [1, 6]: 13 ± 6.3 µM (≈ 3.45 µg/mL)
- IC50 at 2 days ([2]; Vero cells (CCL81)): 7.2 µM
- IC50 [3]: 8 ± 0.6 µM
- bactericidal activity (in words) [4]: bactericidal
- log kill (sterilized the culture) ([4]; 27 μM (10× MIC), within 14 days): > 4 log
- logs of bacteria killed ([4]; concentrations above 14 μM (5× MIC)): ≥ 2 logs

Compound: Oc1cccc2ccc(/C=C/c3ccccc3Cl)nc12 [Compound 25]
- MIC [1, 6]: 5.8 ± 2.2 µM (≈ 1.63 µg/mL)
- IC50 at 2 days ([2]; Vero cells (CCL81)): 9 µM
- IC50 [3]: 12 ± 1 µM

Compound: OCc1ccccc1CN1CCN(Cc2ccc3cccc(O)c3n2)CC1 [Compound 26]
- anti-tubercular activity (in words) [1]: not tolerated
- MIC [1, 6]: > 20 µM
- IC50 at 2 days ([2]; Vero cells (CCL81)): 11 µM
- IC50 [3]: 14 ± 0.5 µM
